Experimental data as given in patent EP4745138A1, “THIO-GLUTARIMIDO ISOINDOLINONE DERIVATIVE, BIFUNCTIONAL PROTEIN DEGRADER CONTAINING SAME, AND USES THEREOF” (Gluetacs Therapeutics (Shanghai) Co., Ltd., priority 2023, dated 2025).
Like-named read-outs stand apart in the source and are kept apart here.

Assays:
MM.1S = experiment: Tumor cell proliferation inhibition (CellTiter-Meiluncell Luminescent Cell Viability Assay); format: cell-based; details: for inhibition at 0.01 µM / inhibition at 0.5 µM: Homo sapiens, MM1.S; for inhibition at 0.01 µM: read-out: Inhibition Rate at 10 nM (%); for inhibition at 0.5 µM: read-out: Inhibition Rate at 500 nM (%)
Procedure: (§1) The tumor cells used herein were cultured in a cell culture medium listed in table 3 at 37°C in an incubator with 5% CO2. Prior to experimentation, all cell lines used were correctly identified by STR profiling, and tested negative for mycoplasma contamination using a mycoplasma detection kit through routine screenings. Table 3. Tumor cells and cell culture medium used in the present disclosure
(§2) The IC50 values of the compounds of the present disclosure (including the compounds in Table 1, Table 2, and Examples) were determined using the CellTiter-Meiluncell Luminescent Cell Viability Assay Kit from Dalian Meilun Biotech Co., Ltd. The detailed procedure is as follows: Tumor cells were seeded in 96-well cell culture plates at the densities specified in Table 4. On the following day, the test compounds of the present disclosure were subjected to serial dilution. […] Subsequently, 0.5 µL of the test compound dilution was transferred into the 96-well plate containing the cells, with each well containing 100 µL of cell culture medium. […] Into the 96-well plate, the diluted test compounds and corresponding detection reagents were added, resulting in final test compound concentrations of 500 nM and 10 nM, respectively. The experimental procedure is described below using the diluted 2 µM test compound as an example.
(§3) 0.5 µL of the aforementioned diluted compound of the present disclosure (including the compounds in Table 1, Table 2, and Examples) was added to the seeded cells in 100 µL of medium, yielding a final test compound concentration of 10 nM. After the cells were treated with the compounds of the present disclosure for a specified period, the cell viability assay reagent was added to the culture medium according to the kit's instructions to determine cell viability. […] All controls were treated using the same procedure as the compounds of the present disclosure. […] Seeding protocol and treatment time for tumor cells

MV-4-11 = experiment: as above; format: cell-based; details: Homo sapiens, 96 hours; for inhibition at 0.01 µM: MV4-11, 10 nM, read-out: Inhibition Rate at 10 nM (%); for inhibition at 0.5 µM: MV4-11, 500 nM, read-out: Inhibition Rate at 500 nM (%)
Procedure: as §1, §2, §3

RPMI-8226 = experiment: as above; format: cell-based; details: Homo sapiens, 96 hours; for inhibition at 0.01 µM: 10 nM, read-out: Inhibition Rate at 10 nM (%); for inhibition at 0.5 µM: 500 nM, read-out: Inhibition Rate at 500 nM (%)
Procedure: as §1, §2, §3

[1] = target: T1, human Cereblon WT GST-tagged protein (Homo sapiens, UniProt Q96SW2); experiment: CRBN-binding affinity, HTRF (CEREBLON BINDING kit); details: for inhibition at 0.5 µM: read-out: Inhibition Rate at 0.5 µM (%); for inhibition at 2 µM: read-out: Inhibition Rate at 2 µM (%)
T1 construct: purchased CISBIO 64BDCRBNPEH
T1 sequence (Q96SW2 whole entry): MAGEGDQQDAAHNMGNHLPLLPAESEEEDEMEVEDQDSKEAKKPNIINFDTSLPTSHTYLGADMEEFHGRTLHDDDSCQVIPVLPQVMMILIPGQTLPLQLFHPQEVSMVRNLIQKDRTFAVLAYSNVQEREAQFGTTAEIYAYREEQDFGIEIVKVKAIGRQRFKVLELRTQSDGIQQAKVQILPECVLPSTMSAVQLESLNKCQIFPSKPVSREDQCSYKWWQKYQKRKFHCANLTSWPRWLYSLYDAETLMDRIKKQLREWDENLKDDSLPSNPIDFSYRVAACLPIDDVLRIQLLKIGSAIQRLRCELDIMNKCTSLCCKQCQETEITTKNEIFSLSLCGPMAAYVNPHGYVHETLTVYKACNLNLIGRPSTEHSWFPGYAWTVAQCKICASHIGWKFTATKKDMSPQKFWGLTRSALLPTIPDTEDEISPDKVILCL
How it was run: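 cpd (final 2 µM, 0.5 µM; diluent #9 1X) + GST-CRBN WT + thalidomide-Red/anti-GST Eu mix; HTRF readout. Blanks: diluent + PROTAC binding buffer + detection mix.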

SW620 = experiment: Tumor cell proliferation inhibition (CellTiter-Meiluncell Luminescent Cell Viability Assay); format: cell-based; details: Homo sapiens, 96 hours; for inhibition at 0.01 µM: SW-620, 10 nM, read-out: Inhibition Rate at 10 nM (%); for inhibition at 0.5 µM: SW-620, 500 nM, read-out: Inhibition Rate at 500 nM (%)
Procedure: as §1, §2, §3

[2] = Table I-8, SMARCA2/4 inhibitors

Question: What does the source list for CN(C)C(=O)c1cc2cnc(Nc3ccc(N4CCNCC4)cn3)nc2n1C1CCCC1 [Ribociclib, reference compound]?
Answer: inhibition at 0.01 µM (MM.1S; MM.1S, 10 nM, 96 hours, Table I-9, CDK4/6 inhibitors): 10 to 20%; inhibition at 0.5 µM (MM.1S; MM.1S, 500 nM, 96 hours, Table I-9, CDK4/6 inhibitors): 10 to 20%; inhibition at 0.01 µM (MV-4-11; Table I-9, CDK4/6 inhibitors): 5 to 10%; inhibition at 0.5 µM (MV-4-11; Table I-9, CDK4/6 inhibitors): 20 to 30%

Question: What does the source list for C[C@@H]1CNC(=O)c2cc3ccc(C(=O)Nc4cnn(Cc5ccc(N6CCC(N7CCN(Cc8ccc9c(c8)CN(C8CCC(=O)NC8=O)C9=S)CC7)CC6)cc5)c4)nc3n21 (stereo partly drawn) [GT-08778, (9R)-N-(1-(4-(4-(4-((2-(2,6-dioxopiperidin-3-yl)-1-thioxoisoindolin-5-yl)methyl)piperazin-1-yl)piperidin-1-yl)benzyl)-1H-pyrazol-4-yl)-9-methyl-6-oxo-6,7,8,9-tetrahydropyrido[3',2':4,5]pyrrolo[1,2-a]pyrazine-2-carboxamide]?
Answer: inhibition at 0.01 µM (MM.1S; MM.1S, 10 nM, 96 hours, Table I-11, RSK inhibitors): 40 to 50%; inhibition at 0.5 µM (MM.1S; MM.1S, 500 nM, 96 hours, Table I-11, RSK inhibitors): 80 to 100%; inhibition at 0.01 µM (RPMI-8226; Table I-11, RSK inhibitors): 10 to 20%; inhibition at 0.5 µM (RPMI-8226; Table I-11, RSK inhibitors): 50 to 60%; inhibition at 0.01 µM (MV-4-11; Table I-11, RSK inhibitors): 50 to 60%; inhibition at 0.5 µM (MV-4-11; Table I-11, RSK inhibitors): 80 to 100%; inhibition at 0.5 µM [1]: 80 to 100%; inhibition at 2 µM [1]: 80 to 100%

Question: What does the source list for CNC(=O)c1ccc(Nc2ncc(C(F)(F)F)c(NCc3nccnc3N(C)S(C)(=O)=O)n2)cc1 [Defactinib, reference compound]?
Answer: inhibition at 0.01 µM (MM.1S; MM.1S, 10 nM, 96 hours, Table I-12, FAK inhibitors): 10 to 20%; inhibition at 0.5 µM (MM.1S; MM.1S, 500 nM, 96 hours, Table I-12, FAK inhibitors): 5 to 10%; inhibition at 0.01 µM (SW620; Table I-12, FAK inhibitors): 0 to 5%; inhibition at 0.5 µM (SW620; Table I-12, FAK inhibitors): 5 to 10%; inhibition at 0.01 µM (MV-4-11; Table I-12, FAK inhibitors): 0 to 5%; inhibition at 0.5 µM (MV-4-11; Table I-12, FAK inhibitors): 50 to 60%

Question: What does the source list for CC1(C)CCC(c2ccc(Cl)cc2)=C(CN2CCN(c3ccc(C(=O)NS(=O)(=O)c4ccc(N[C@H](CCN5CCN(Cc6ccc7c(c6)CN(C6CCC(=O)NC6=O)C7=S)CC5)CSc5ccccc5)c(S(=O)(=O)C(F)(F)F)c4)cc3)CC2)C1 (stereo partly drawn) [GT-09415, 4-(4-((4'-chloro-4,4-dimethyl-3,4,5,6-tetrahydro-[1,1'-biphenyl]-2-yl)methyl)piperazin-1-yl)-N-((4-(((2R)-4-(4-((2-(2,6-dioxopiperidin-3-yl)-1-thioxoisoindolin-5-yl)methyl)piperazin-1-yl)-1-(phenylthio)butan-2-yl)amino)-3-((trifluoromethyl)sulfonyl)phenyl)sulfonyl)benzamide]?
Answer: inhibition at 0.01 µM (SW620; Table I-15, BCL-2 inhibitors): 30 to 40%; inhibition at 0.5 µM (SW620; Table I-15, BCL-2 inhibitors): 80 to 100%; inhibition at 0.5 µM [1]: 53 to 60%; inhibition at 2 µM [1]: 80 to 100%

Question: What does the source list for Cc1cc(S(=O)(=O)N2CCN(Cc3ccc4c(c3)CN(C3CCC(=O)NC3=O)C4=S)CC2)ccc1Nc1ncc(Br)c(Nc2cccc(F)c2C(N)=O)n1 (centres unmarked) [GT-08714, 2-((5-bromo-2-((4-((4-((2-(2,6-dioxopiperidin-3-yl)-1-thioxoisoindolin-5-yl)methyl)piperazin-1-yl)sulfonyl)-2-methylphenyl)amino)pyrimidin-4-yl)amino)-6-fluorobenzamide]?
Answer: inhibition at 0.01 µM (MM.1S; MM.1S, 10 nM, 96 hours, Table I-8, SMARCA2/4 inhibitors): 30 to 40%; inhibition at 0.5 µM (MM.1S; MM.1S, 500 nM, 96 hours, Table I-8, SMARCA2/4 inhibitors): 50 to 60%; inhibition at 0.01 µM (RPMI-8226; [2]): 30 to 40%; inhibition at 0.5 µM (RPMI-8226; [2]): 40 to 50%; inhibition at 0.5 µM [1]: 53 to 60%; inhibition at 2 µM [1]: 60 to 80%

Question: Which results are given for CC(C)CCN1c2nc(Nc3cc(F)c(O)c(F)c3)ncc2N(C)C(=O)C1C (centres unmarked) [BI-D1870, reference compound]?
Answer: inhibition at 0.01 µM (MM.1S; 96 h): 114%; inhibition at 0.5 µM (MM.1S; 96 h): 20 to 30%; inhibition at 0.01 µM (RPMI-8226; Table I-11, RSK inhibitors): 10 to 20%; inhibition at 0.5 µM (RPMI-8226; Table I-11, RSK inhibitors): 10 to 20%; inhibition at 0.01 µM (MV-4-11; Table I-11, RSK inhibitors): 0 to 5%; inhibition at 0.5 µM (MV-4-11; Table I-11, RSK inhibitors): 20 to 30%

Question: Which results are given for Nc1cccc2c1CN(C1CCC(=O)NC1=O)C2=O (centres unmarked) [Lenalidomide, lenalidomide, reference compound]?
Answer: inhibition at 0.5 µM (MM.1S; 96 h): 30 to 35%; Inhibition Rate at 10 nM (%) (MM.1S; MM.1S, 10 nM, 96 hours, Table I-16, compounds of Formula (II)): ln2

Question: Nc1nnc(-c2ccccc2O)cc1N1CCNCC1 [GTC00645] was tested. Which inhibition at 0.01 µM (MM.1S; 96 h) did it give?
Answer: 15 to 20%

Question: What about the inhibition at 0.5 µM (MM.1S; 96 h) of the same compound?
Answer: 15 to 20%

Question: What about the inhibition at 0.01 µM (RPMI-8226; [2]) of the same compound?
Answer: -5 to 0%

Question: What about the inhibition at 0.5 µM (RPMI-8226; [2]) of the same compound?
Answer: -5 to 0%

Question: What about the inhibition at 0.01 µM (MV-4-11; [2]) of the same compound?
Answer: 10 to 15%

Question: And the inhibition at 0.5 µM (MV-4-11; [2])?
Answer: 10 to 15%

Question: With CC1(C)CCC(CN2CCN(c3ccc(C(=O)NS(=O)(=O)c4ccc(NCC5CCOCC5)c([N+](=O)[O-])c4)c(Oc4cnc5[nH]ccc5c4)c3)CC2)=C(c2ccc(Cl)cc2)C1 [ABT-199, Venetoclax, reference compound] as the compound, how does the inhibition at 0.01 µM (SW620; Table I-15, BCL-2 inhibitors) read?
Answer: 5 to 10%

Question: And the inhibition at 0.5 µM (SW620; Table I-15, BCL-2 inhibitors)?
Answer: 5 to 10%

Question: Which inhibition at 0.01 µM (MV-4-11; Table I-3, EGFR inhibitors) does the source give for COc1cc(N2CCC(N(C)Cc3ccc4c(c3)CN(C3CCC(=O)NC3=O)C4=S)CC2)c(C)cc1Nc1ncc(Br)c(Nc2ccc3nccnc3c2P(C)(C)=O)n1 (centres unmarked) [GT-08754, 3-(5-(((1-(4-((5-bromo-4-((5-(dimethylphosphoryl)quinoxalin-6-yl)amino)pyrimidin-2-yl)amino)-5-methoxy-2-methylphenyl)piperidin-4-yl)(methyl)amino)methyl)-1-thioxoisoindolin-2-yl)piperidine-2,6-dione] here?
Answer: 10 to 20%

Question: What about the inhibition at 0.5 µM (MV-4-11; Table I-3, EGFR inhibitors) of the same compound?
Answer: 70 to 80%

Question: And the inhibition at 0.5 µM [1]?
Answer: 80 to 100%

Question: And the inhibition at 2 µM [1]?
Answer: 80 to 100%

Question: With O=C1CCC(N2Cc3c(CN4CCN(c5ccc(-c6cc(F)c7c(c6)C(=O)N(C(C(=O)Nc6nccs6)c6ncn8c6CCC8)C7)cc5)CC4)cccc3C2=S)C(=O)N1 (centres unmarked) [GT-09429, 2-(6,7-dihydro-5H-pyrrolo[1,2-c]imidazol-1-yl)-2-(6-(4-(4-((2-(2,6-dioxopiperidin-3-yl)-1-thioxoisoindolin-4-yl)methyl)piperazin-1-yl)phenyl)-4-fluoro-1-oxoisoindolin-2-yl)-N-(thiazol-2-yl)acetamide] as the compound, how does the inhibition at 0.01 µM (SW620; Table I-3, EGFR inhibitors) read?
Answer: 10 to 20%

Question: What about the inhibition at 0.5 µM (SW620; Table I-3, EGFR inhibitors) of the same compound?
Answer: 70 to 80%
